Test results as given in patent US12310975B2, “Modulators of BCL6 proteolysis and associated methods of use” (Arvinas Operations, Inc., priority 2019, dated 2025).

How the values were obtained:
BCL6 [1] = molecular target: T1, BCL6 (Homo sapiens (Human), UniProt P41182); test: BCL6 TR-FRET assay (BCL6-Avitag-Biotin / BCoR-Cy5 peptide); type: binding; details: read-out: IC50
Summary of the method: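 TR-FRET displacement assay: biotinylated His-SUMO-BCL6-Avitag (2 nM) pre-incubated 30 min at room temperature with compound (12-point 3-fold titration), then BCoR-Cy5 peptide (100 nM) and Eu-streptavidin (2 nM) added. Buffer: 50 mM HEPES pH 7.5, 125 mM NaCl, 0.01% Triton X, glutathione or DTT, 0.03% BSA. Read after 2 h.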

BCL6 [2] = molecular target: T1, BCL6; test: Immunofluorescence high content imaging of BCL6 degradation in T47D cells; type: cell-based; details: T47D
Summary of the method: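 Read-out is BCL6 immunofluorescence quantified by high-content imaging (10×, 4 fields per well) of T47D breast cancer cells. Cells were exposed for 3 days to degrader in an 11-point, 3-fold serial dilution reaching a final top concentration of 0.1 or 1 μM.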

Row | SMILES | IC50 (BCL6 [1]) | Dmax (BCL6 [2])
1 | CNC(=O)COc1cc2cc(Nc3nc(N4CCC(CN5CC6(CCN(c7cccc8c7CN(C7CCC(=O)NC7=O)C8=O)CC6)C5)CC4)ncc3Cl)ccc2n(C(C)C)c1=O (stereo not shown) [compound 448, 2-{[6-({5-chloro-2-[4-({7-[2-(2,6-dioxopiperidin-3-yl)-1-oxo-2,3-dihydro-1H-isoindol-4-yl]-2,7-diazaspiro[3.5]nonan-2-yl}methyl)piperidin-1-yl]pyrimidin-4-yl}amino)-2-oxo-1-(propan-2-yl)-1,2-dihydroquinolin-3-yl]oxy}-N-methylacetamide] | < 10 nM | 50 to 70%
2 | CNC(=O)COc1cc2cc(Nc3nc(N4CCC5(CC4)CN(CC4CCN(c6cccc(C(=O)NC7CCC(=O)NC7=O)c6F)CC4)C5)ncc3Cl)ccc2n(C(C)C)c1=O (stereo not shown) [compound 450, 3-[4-({7-[5-chloro-4-({3-[(methylcarbamoyl)methoxy]-2-oxo-1-(propan-2-yl)-1,2-dihydroquinolin-6-yl}amino)pyrimidin-2-yl]-2,7-diazaspiro[3.5]nonan-2-yl}methyl)piperidin-1-yl]-N-(2,6-dioxopiperidin-3-yl)-2-fluorobenzamide] | < 10 nM | ≥ 70%
3 | CNC(=O)COc1cc2cc(Nc3nc(N4CCC5(CC4)CC(OC4CCN(c6cccc(C(=O)NC7CCC(=O)NC7=O)c6F)CC4)C5)ncc3Cl)ccc2n(C(C)C)c1=O (stereo not shown) [compound 453, 3-[4-({7-[5-chloro-4-({3-[(methylcarbamoyl)methoxy]-2-oxo-1-(propan-2-yl)-1,2-dihydroquinolin-6-yl}amino)pyrimidin-2-yl]-7-azaspiro[3.5]nonan-2-yl}oxy)piperidin-1-yl]-N-(2,6-dioxopiperidin-3-yl)-2-fluorobenzamide] | 10 to 50 nM | ≥ 70%
4 | CNC(=O)COc1cc2cc(Nc3nc(N4CCN(CC5CCN(c6cccc7c6C(=O)N(C6CCC(=O)NC6=O)C7=O)CC5)CC4)ncc3Cl)ccc2n(CCOC)c1=O (stereo not shown) [compound 454, 2-{[6-({5-chloro-2-[4-({1-[2-(2,6-dioxopiperidin-3-yl)-1,3-dioxo-2,3-dihydro-1H-isoindol-4-yl]piperidin-4-yl}methyl)piperazin-1-yl]pyrimidin-4-yl}amino)-1-(2-methoxyethyl)-2-oxo-1,2-dihydroquinolin-3-yl]oxy}-N-methylacetamide] | < 10 nM | ≥ 70%
5 | CNC(=O)COc1cc2cc(Nc3nc(N4CCC(CN5CCC(c6cc(OC)cc(C(=O)NC7CCC(=O)NC7=O)c6F)CC5)CC4)ncc3Cl)ccc2n(C(C)C)c1=O (stereo not shown) [compound 462, 3-[1-({1-[5-chloro-4-({3-[(methylcarbamoyl)methoxy]-2-oxo-1-(propan-2-yl)-1,2-dihydroquinolin-6-yl}amino)pyrimidin-2-yl]piperidin-4-yl}methyl)piperidin-4-yl]-N-(2,6-dioxopiperidin-3-yl)-2-fluoro-5-methoxybenzamide] | ≥ 100 nM | ≥ 70%
6 | CNC(=O)COc1cc2cc(Nc3nc(N4CCN(CC5CCN(c6cc(OC)cc(C(=O)NC7CCC(=O)NC7=O)c6F)CC5)CC4)ncc3Cl)ccc2n(C)c1=O (stereo not shown) [compound 465, 3-[4-({4-[5-chloro-4-({1-methyl-3-[(methylcarbamoyl)methoxy]-2-oxo-1,2-dihydroquinolin-6-yl}amino)pyrimidin-2-yl]piperazin-1-yl}methyl)piperidin-1-yl]-N-(2,6-dioxopiperidin-3-yl)-2-fluoro-5-methoxybenzamide] | < 10 nM | 50 to 70%
7 | CNC(=O)COc1cc2cc(Nc3nc(N4CCC(CN5CCN(c6cc(OC)cc(C(=O)NC7CCC(=O)NC7=O)c6F)CC5)CC4)ncc3Cl)ccc2n(C(C)C)c1=O (stereo not shown) [compound 466, 3-[4-({1-[5-chloro-4-({3-[(methylcarbamoyl)methoxy]-2-oxo-1-(propan-2-yl)-1,2-dihydroquinolin-6-yl}amino)pyrimidin-2-yl]piperidin-4-yl}methyl)piperazin-1-yl]-N-(2,6-dioxopiperidin-3-yl)-2-fluoro-5-methoxybenzamide] | < 10 nM | 50 to 70%
8 | CNC(=O)COc1cc2cc(Nc3nc(N4CCC(CN5CCC(c6cc(OC)cc(C(=O)NC7CCC(=O)NC7=O)c6F)CC5)CC4)ncc3Cl)ccc2n(C)c1=O (stereo not shown) [compound 467, 3-[1-({1-[5-chloro-4-({1-methyl-3-[(methylcarbamoyl)methoxy]-2-oxo-1,2-dihydroquinolin-6-yl}amino)pyrimidin-2-yl]piperidin-4-yl}methyl)piperidin-4-yl]-N-(2,6-dioxopiperidin-3-yl)-2-fluoro-5-methoxybenzamide] | 10 to 50 nM | < 50%
9 | CNC(=O)COc1cc2cc(Nc3nc(N(C)C)ncc3Cl)ccc2n(CCCOc2ccc3c(c2)C(=O)N(C2CCC(=O)NC2=O)C3=O)c1=O (stereo not shown) [compound 469, 2-[(6-{[5-chloro-2-(dimethylamino)pyrimidin-4-yl]amino}-1-(3-{[2-(2,6-dioxopiperidin-3-yl)-1,3-dioxo-2,3-dihydro-1H-isoindol-5-yl]oxy}propyl)-2-oxo-1,2-dihydroquinolin-3-yl)oxy]-N-methylacetamide] | 10 to 50 nM | < 50%

Next, values leading:

Row | IC50 (BCL6 [1]) | Dmax (BCL6 [2]) | SMILES
10 | < 10 nM | 50 to 70% | CNC(=O)COc1cc2cc(Nc3nc(N4CCN(CC5CCC6(CC5)CN(c5ccc7c(c5)C(=O)N(C5CCC(=O)NC5=O)C7=O)C6)CC4)ncc3Cl)ccc2n(C(C)C)c1=O (stereo not shown) [compound 451, 2-{[6-({5-chloro-2-[4-({2-[2-(2,6-dioxopiperidin-3-yl)-1,3-dioxo-2,3-dihydro-1H-isoindol-5-yl]-2-azaspiro[3.5]nonan-7-yl}methyl)piperazin-1-yl]pyrimidin-4-yl}amino)-2-oxo-1-(propan-2-yl)-1,2-dihydroquinolin-3-yl]oxy}-N-methylacetamide]
11 | < 10 nM | ≥ 70% | CNC(=O)COc1cc2cc(Nc3nc(N4CCN(CC5CCC6(CC5)CN(c5cccc7c5C(=O)N(C5CCC(=O)NC5=O)C7=O)C6)CC4)ncc3Cl)ccc2n(C(C)C)c1=O (stereo not shown) [compound 452, 2-{[6-({5-chloro-2-[4-({2-[2-(2,6-dioxopiperidin-3-yl)-1,3-dioxo-2,3-dihydro-1H-isoindol-4-yl]-2-azaspiro[3.5]nonan-7-yl}methyl)piperazin-1-yl]pyrimidin-4-yl}amino)-2-oxo-1-(propan-2-yl)-1,2-dihydroquinolin-3-yl]oxy}-N-methylacetamide]
12 | 50 to 100 nM | ≥ 70% | CNC(=O)COc1cc2cc(Nc3nc(N4CCC[C@H](COc5cccc6c5C(=O)N(C5CCC(=O)NC5=O)C6=O)C4)ncc3Cl)ccc2n(CCOC)c1=O (stereo partly drawn) [compound 455, 2-{[6-({5-chloro-2-[(3S)-3-({[2-(2,6-dioxopiperidin-3-yl)-1,3-dioxo-2,3-dihydro-1H-isoindol-4-yl]oxy}methyl)piperidin-1-yl]pyrimidin-4-yl}amino)-1-(2-methoxyethyl)-2-oxo-1,2-dihydroquinolin-3-yl]oxy}-N-methylacetamide]
13 | 50 to 100 nM | ≥ 70% | CNC(=O)COc1cc2cc(Nc3nc(N4CCC(O[C@H]5C[C@H](COc6ccc7c(c6)C(=O)N(C6CCC(=O)NC6=O)C7=O)N(C)C5)CC4)ncc3Cl)ccc2n(C(C)C)c1=O (stereo partly drawn) [compound 458, 2-[(6-{[5-chloro-2-(4-{[(3S,5R)-5-({[2-(2,6-dioxopiperidin-3-yl)-1,3-dioxo-2,3-dihydro-1H-isoindol-5-yl]oxy}methyl)-1-methylpyrrolidin-3-yl]oxy}piperidin-1-yl)pyrimidin-4-yl]amino}-2-oxo-1-(propan-2-yl)-1,2-dihydroquinolin-3-yl)oxy]-N-methylacetamide]
14 | 10 to 50 nM | 50 to 70% | CNC(=O)COc1cc2cc(Nc3nc(N4CCC(O[C@@H]5C[C@H](Oc6ccc7c(c6)C(=O)N(C6CCC(=O)NC6=O)C7=O)CN(C)C5)CC4)ncc3Cl)ccc2n(C(C)C)c1=O (stereo partly drawn) [compound 461, 2-[(6-{[5-chloro-2-(4-{[(3R,5S)-5-{[2-(2,6-dioxopiperidin-3-yl)-1,3-dioxo-2,3-dihydro-1H-isoindol-5-yl]oxy}-1-methylpiperidin-3-yl]oxy}piperidin-1-yl)pyrimidin-4-yl]amino}-2-oxo-1-(propan-2-yl)-1,2-dihydroquinolin-3-yl)oxy]-N-methylacetamide]
15 | 10 to 50 nM | < 50% | CNC(=O)COc1cc2cc(Nc3nc(N4CCC(O[C@@H]5C[C@@H](COc6ccc7c(c6)C(=O)N(C6CCC(=O)NC6=O)C7=O)N(C)C5)CC4)ncc3Cl)ccc2n(C(C)C)c1=O (stereo partly drawn) [compound 463, 2-[(6-{[5-chloro-2-(4-{[(3R,5S)-5-({[2-(2,6-dioxopiperidin-3-yl)-1,3-dioxo-2,3-dihydro-1H-isoindol-5-yl]oxy}methyl)-1-methylpyrrolidin-3-yl]oxy}piperidin-1-yl)pyrimidin-4-yl]amino}-2-oxo-1-(propan-2-yl)-1,2-dihydroquinolin-3-yl)oxy]-N-methylacetamide]
16 | 10 to 50 nM | < 50% | CNC(=O)COc1cc2cc(Nc3nc(N(C)C)ncc3Cl)ccc2n(CCOc2ccc3c(c2)C(=O)N(C2CCC(=O)NC2=O)C3=O)c1=O (stereo not shown) [compound 470, 2-[(6-{[5-chloro-2-(dimethylamino)pyrimidin-4-yl]amino}-1-(2-{[2-(2,6-dioxopiperidin-3-yl)-1,3-dioxo-2,3-dihydro-1H-isoindol-5-yl]oxy}ethyl)-2-oxo-1,2-dihydroquinolin-3-yl)oxy]-N-methylacetamide]
17 | 10 to 50 nM | < 50% | CNC(=O)COc1cc2cc(Nc3nc(N4CCC(O[C@H]5C[C@H](COc6cccc7c6C(=O)N(C6CCC(=O)NC6=O)C7=O)N(C)C5)CC4)ncc3Cl)ccc2n(C(C)C)c1=O (stereo partly drawn) [compound 471, 2-[(6-{[5-chloro-2-(4-{[(3S,5R)-5-({[2-(2,6-dioxopiperidin-3-yl)-1,3-dioxo-2,3-dihydro-1H-isoindol-4-yl]oxy}methyl)-1-methylpyrrolidin-3-yl]oxy}piperidin-1-yl)pyrimidin-4-yl]amino}-2-oxo-1-(propan-2-yl)-1,2-dihydroquinolin-3-yl)oxy]-N-methylacetamide]
